Read-outs that look alike come from different tables or passages of the source.

Assay [1] deals with Rat chondrocyte. The procedure: Chondrocytes were cultured in a T75 flask for 3-4 days. When the degree of fusion reached 80%, the original culture medium was removed, and sterile PBS was added to clean the cells for 2-3 times, then a proper amount of digestive juice was added, and a fresh culture medium was added after the cells were detached. Cells were centrifuged to remove the cell sap containing the digestive juice, and a proper amount of fresh culture medium was added to be prepared into a cell suspension with appropriate concentration for cell subculture or cell experiments. Cell subculture began from generation P1 and ended till generation P5, and there were cryopreserved cells in each generation. Cells were used for the experiment when subcultured to P2-P5.
According to the inoculum size of 200 μL/well, the cell suspension with the density of 2.5*10^4/mL was inoculated onto a 96-well cell culture plate, and 3 groups were prepared in total, one for control group, and the other two groups were stimulated by hydrogen peroxide. A cell-free medium was prepared as a blank group. There were 4-5 sub-wells prepared in each group. The cell culture plate was put to an incubator for incubation for 24 hours. The culture medium was replaced to different experimental groups in the following day with a dose volume of 100 μl and incubated for 24 or 48 hours respectively.
At the end of incubation according to the experimental plan, 10 μL of 5 mg/ml MTT was added to each experimental group based upon 1/10 of the cell culture volume, so that the cells were incubated with MTT in the incubator for 4 hours. Afterwards, supernatant was carefully discarded, and 200 μL of dimethyl sulfoxide (DMSO) was added for mixing well, then the absorbance was measured on a microplate reader at a test wavelength of 570 nm. Calculating formula of relative cell activity ratio (%): a mean value of the absorbance (per well) in the experimental group/the absorbance in the control group multiplies by 100%. All experimental groups were expressed as mean±standard deviation (X±SD). The difference between each group was analyzed by Prism 7.0, and tested by one-way ANOVA. *P<0.05 means statistical difference, **P<0.01 means significant statistical difference, and […] means extremely significant statistical difference.
The experimental concentration of hydrogen peroxide ranged within 0.01, 0.1, 0.5, 1, 10 mM. In order to determine the H2O2 molding time and dosage, three molding time points at 24 hours, 48 hours and 72 hours were selected, and two detection wells were prepared in total for each dosage of hydrogen peroxide.

Assay [2] concerns type-II CIA mice. Description: Chronic inflammation model of type-II CIA in mice. The assay is classed as in vivo, Balb/c mice. As to conditions: G3 Adalimumab 8 mg/kg SC 1 time/14 d, 1 time, day 60. The procedure:
Experimental method: Balb/c mice were taken and immunized for the first time. The concentration of type-II bovine collagen was 4 mg/mL. On the day of the experiment (day 0), complete Freund's adjuvant (CFA) and CII solution were mixed evenly in equal volume and emulsified. Excepting for the normal control group of Balb/c mice, mice in each group were sensitized by intracutaneous injection of 50 μL emulsifier at the end of tails. 21 days later, mice were re-immunized with the same dose of emulsifier at the end of tails, and incomplete Freund's adjuvant (IFA) served as an adjuvant at this time. Redness and swelling other arthritic symptoms appeared on toe joints of mice models approximately on the 29th day of the experiment, indicating successful modeling.
Animals in the modeling group on the 30th day of the experiment were randomly divided into:
There were 12 groups in total, and there were 8 pieces of mice in remaining each group excepting for 12 pieces in G1 (normal control group) and G2 (model group).
Measurement of mice weight: mice were weighed by an electronic balance every two days.
Measurement of sole thickness: the thickness of left, right and hind soles for each mouse was measured by a vernier caliper every two days.
Measurement of ankle joint width: the width of left and right ankle joints for each mouse was measured by vernier caliper every two days.
Arthritis index (AI) score: the severity of arthritis for each mouse was evaluated by a paw joint scoring method. 0: no redness and swelling; 1: redness and swelling of little toe joints; 2: redness and swelling of toe joints and toes; 3: redness and swelling of the portion below ankle joints; 4: redness and swelling of toe joints, toes and ankle joints. Scoring was performed once every two days until the end of the experiment.
Blood was collected from the orbit and serum was separated. After mice were killed by cervical dislocation, spleen and thymus were separated and weighed to calculate a spleen coefficient, and then the spleen and thymus were fixed in formalin stationary liquid.

Assay [3] deals with mice splenic lymphocyte proliferation stimulated by ConA. The assay is classed as cell-based. As to conditions: for optimal (best) inhibition rate of splenic lymphocyte proliferation: ConA 5 μg/mL, 48 h, MTT, best of the tested concentrations; for inhibition rate / in vitro efficacy compared with TSL-4 control group: control: TSL-4 (P4 positive control, 12 μmol/L). The procedure: Experimental method: mice orbit was by bloodletting to death, and immediately immersed in 75% ethanol for 5-10 min, and then the spleen was removed on a clean bench and placed in PBS. The spleen was placed on a sterile cell strainer (200 mesh) and ground with a syringe nozzle; during grinding process, PBS was added continuously; the slurry was collected and centrifuged (1000 rpm for 5 min), then cells were washed 3 times with Tris-ammonium chloride solution, and washed again with a medium, and then re-suspended in the medium. Finally, trypan blue living cell staining was performed on the cells, and the survival rate was more than 95%. The concentration of viable cells was adjusted to 2×10^6/mL. […] was added to each well of a 96-well plate, meanwhile, ConA (concanavalin to simulate splenocyte proliferation) and drugs were added to each well. Six duplicates were set in each group.
The 96-well plate was incubated for 48 h in a 5% CO2 incubator at 37° C. 5 mg/mL of MTT was added to the 96-well plate, 20 μL for each well, and then it was incubated continuously for 4 h in the incubator. The culture medium in the 96-well plate was discarded and 100 μL DMSO was added to each well and mixed gently. Absorbance was measured by a microplate reader at the wavelength of 570 nm and reference wavelength of 630 nm.
Proliferation inhibition rate (PI) was calculated according to formula:
[formula] wherein, Atest is the absorbance of dosing group, and Acontrol is the absorbance of negative control. Test results were expressed as mean±SD, and statistical T test was performed. *P<0.05 indicates significant difference, **P<0.01 indicates extremely significant difference. Based upon the results, the efficacy of the fusion protein against rheumatoid arthritis was screened.
In the P4 control group, TSL-4 fusion protein served as a control agent.

The test system of assay [4] is transgenic blood vessel fluorescent zebrafish. Description: In vivo anti-angiogenesis in zebrafish (SIVs area). The following applies: for inhibiting effect on angiogenesis: 20 ng/tail; for inhibition rate of angiogenesis / area of SIVs: 24 h; for area of SIVs: normal control group 53193. Also noted: area of SIVs: unit not given here. As to the method: Experimental method: transgenic blood vessel fluorescent zebrafish was randomly selected and put into a six-well plate with 30 fish per well, and intravenously injected HM-3 polypeptide, TSL-1 fusion protein, TSL-2 fusion protein, TSL-3 fusion protein and TSL-4 fusion protein respectively in accordance with the dosage of 20 ng/tail and 66 ng/tail; the dosage was […] in Avastin positive control and the injection volume was 20 nL/tail; the zebrafish injected 20 nL/tail of buffer solution served as a solvent control group, and the zebrafish without any treatment served as a normal control group. 10 pieces of zebrafish were randomly selected from each group after processed for 24 h to observe the intestinal vessels of the transgenic zebrafish by a fluorescence microscope, as well as to take and maintain images. Image analysis was performed by Nikon MS-Elements D 3.10 to calculate the area (S) of SIVs (subintestinal vessel, SIV). The calculation formula of angiogenesis inhibition rate was as follows: Angiogenesis inhibition rate (%)=(1−S(Test sample group)/S(Normal control group))×100%
Statistical analysis was performed by variance analysis and Dunnett's T-test and the results were expressed as Mean±SD, where p<0.05 indicates a significant difference.

On to `OO` [H2O2, hydrogen peroxide], for which the MTT test value in assay [1] (0.01 mM H2O2, 24 h, 0 mM 2.35) is given as 2.51; in assay [1] (0.01 mM H2O2, 48 h, 0 mM 2.24) it was 2.1; in assay [1] (0.01 mM H2O2, 72 h, 0 mM 1.94), 1.99; in assay [1] (0.1 mM H2O2, 24 h, 0 mM 2.35), 2.29; in assay [1] (0.1 mM H2O2, 48 h, 0 mM 2.24) it was 2.08; in assay [1] (0.1 mM H2O2, 72 h, 0 mM 1.94), 1.92. Besides, the MTT test value in assay [1] (1 mM H2O2, 24 h, 0 mM 2.35) is 1.28; in assay [1] (1 mM H2O2, 48 h, 0 mM 2.24), 1.47; in assay [1] (1 mM H2O2, 72 h, 0 mM 1.94) it was 0.81; in assay [1] (10 mM H2O2, 24 h, 0 mM 2.35), 0.06; in assay [1] (10 mM H2O2, 48 h, 0 mM 2.24), 0.56; in assay [1] (10 mM H2O2, 72 h, 0 mM 1.94), −0.07.

Take Adalimumab [reference compound]: the ankle width in assay [2] (model G2 4.83±0.20) is given as 4.23±0.08 mm. Moreover, the arthritis scoring in assay [2] (model G2 11.5±1.7) was determined as 7.6±0.9. In addition, in assay [2] (model G2 13.62), the paw circumference is listed as 11.42±0.20 mm. Further, the weight of mice in assay [2] (model G2 19.5±1.6) is 21.0 ± 1.5 g. Also, the spleen weight in assay [2] (model G2 114.6±14.5) amounted to 94.6 ± 6.7 mg.

Take HM-3-(GGGGS)3-mIgG4-Fc [TSL-2]: the “optimal (best) inhibition rate of splenic lymphocyte proliferation” value in assay [3] stood at 34.1%. For the same molecule, in assay [4], the “inhibiting effect on angiogenesis” value was “significant inhibitory effect”. For the same molecule, in assay [4] (20 ng/tail iv), the “inhibition rate of angiogenesis” value was determined as 19% and the “area of SIVs” value stood at 42828. Besides, in assay [4] (66 ng/tail iv), the “inhibition rate of angiogenesis” value stood at 39% and the “area of SIVs” value turned out to be 32374.

For the molecule HM-3-HyFc [TSL-14], the “inhibition rate / in vitro efficacy compared with TSL-4 control group” value in assay [3] was “Significantly lower”.

Regarding HyFc-(GGGGS)3-HM-3 [TSL-16], the “inhibition rate / in vitro efficacy compared with TSL-4 control group” value in assay [3] is listed as “Significantly lower”.

B1: HM-3-(GGGGS)3-IgG2-Fc (protein)
chain: IVRRADRAAVPGGGGRGDGGGGSGGGGSGGGGSERKCCVECPPCPAPPVAGPSVFLFPPKPKDTLMISRTPEVTCVVVDVSHEDPEVQFNWYVDGVEVHNAKTKPREEQFNSTFRVVSVLTVVHQDWLNGKEYKCKVSNKGLPAPIEKTISKTKGQPREPQVYTLPPSREEMTKNQVSLTCLVKGFYPSDISVEWESNGQPENNYKTTPPMLDSDGSFFLYSKLTVDKSRWQQGNVFSCSVMHEALHNHYTQKSLSLSPGK
As for B1, the “optimal (best) inhibition rate of splenic lymphocyte proliferation” value in assay [3] stood at 39.6%. Further, the “inhibiting effect on angiogenesis” value in assay [4] was “significant inhibitory effect”. Further, in assay [4] (20 ng/tail iv), the “inhibition rate of angiogenesis” value was 25% and the “area of SIVs” value worked out at 39929. Further, in assay [4] (66 ng/tail iv), the “inhibition rate of angiogenesis” value stood at 30% and the “area of SIVs” value came out at 37022.

These data come from patent US11655308B2, “HM-3 fusion protein and application thereof” (TASLY BIOPHARMACEUTICALS CO., LTD., priority 2017, dated 2023).
